# How the values were obtained:
# Assay in all cases: Ambit kinase profiling, competition binding
# DCAMKL2 = target: T1, DCAMKL2 (Homo sapiens, UniProt Q8N568); conditions: compound concentration 10 uM, read-out: Percent Competition
# T1 construct: purchased Ambit Biosciences (KINOMEscan)
# Description: (§1) Supplement pone.0044653.s004.xls, sheet "Compound 122" | column: Percent Competition
# BIKE = target: T2, BIKE (Homo sapiens, UniProt Q9NSY1); conditions: compound concentration 10 uM, read-out: Percent Competition
# T2 construct: purchased Ambit Biosciences (KINOMEscan)
# Description: as §1
# AKT2 = target: T3, AKT2 (Homo sapiens, UniProt P31751); conditions: compound concentration 10 uM, read-out: Percent Competition
# T3 construct: purchased Ambit Biosciences (KINOMEscan)
# Description: as §1
# PIK3CA = target: T4, PIK3CA (Homo sapiens, UniProt P42336); conditions: compound concentration 10 uM, read-out: Percent Competition
# T4 construct: purchased Ambit Biosciences (KINOMEscan)
# Description: as §1
# [1] = target: T5, RPS6KA4(Kin.Dom.1-N-terminal) (Homo sapiens, UniProt O75676); conditions: compound concentration 10 uM, read-out: Percent Competition
# T5 construct: RPS6KA4(Kin.Dom.1-N-terminal); purchased Ambit Biosciences (KINOMEscan)
# Description: as §1
# SIK2 = target: T6, SIK2 (Homo sapiens, UniProt Q9H0K1); conditions: compound concentration 10 uM, read-out: Percent Competition
# T6 construct: purchased Ambit Biosciences (KINOMEscan)
# Description: as §1
# PFTAIRE2 = target: T7, PFTAIRE2 (Homo sapiens, UniProt Q96Q40); conditions: compound concentration 10 uM, read-out: Percent Competition
# T7 construct: purchased Ambit Biosciences (KINOMEscan)
# Description: as §1
# TEC = target: T8, TEC (Homo sapiens, UniProt P42680); conditions: compound concentration 10 uM, read-out: Percent Competition
# T8 construct: purchased Ambit Biosciences (KINOMEscan)
# Description: as §1
# RIOK2 = target: T9, RIOK2 (Homo sapiens, UniProt Q9BVS4); conditions: compound concentration 10 uM, read-out: Percent Competition
# T9 construct: purchased Ambit Biosciences (KINOMEscan)
# Description: as §1
# KIT = target: T10, KIT (Homo sapiens, UniProt P10721); conditions: compound concentration 10 uM, read-out: Percent Competition
# T10 construct: purchased Ambit Biosciences (KINOMEscan)
# Description: as §1
# ABL1(F317I) = target: T11, ABL1(F317I) (Homo sapiens, UniProt P00519, F317I); conditions: compound concentration 10 uM, read-out: Percent Competition
# T11 construct: purchased Ambit Biosciences (KINOMEscan)
# Description: as §1
# NEK9 = target: T12, NEK9 (Homo sapiens, UniProt Q8TD19); conditions: compound concentration 10 uM, read-out: Percent Competition
# T12 construct: purchased Ambit Biosciences (KINOMEscan)
# Description: as §1
# CSF1R = target: T13, CSF1R (Homo sapiens, UniProt P07333); conditions: compound concentration 10 uM, read-out: Percent Competition
# T13 construct: purchased Ambit Biosciences (KINOMEscan)
# Description: as §1
# INSR = target: T14, INSR (Homo sapiens, UniProt P06213); conditions: compound concentration 10 uM, read-out: Percent Competition
# T14 construct: purchased Ambit Biosciences (KINOMEscan)
# Description: as §1
# PAK1 = target: T15, PAK1 (Homo sapiens, UniProt Q13153); conditions: compound concentration 10 uM, read-out: Percent Competition
# T15 construct: purchased Ambit Biosciences (KINOMEscan)
# Description: as §1
# DLK = target: T16, DLK (Homo sapiens, UniProt Q12852); conditions: compound concentration 10 uM
# T16 construct: purchased Ambit Biosciences (KINOMEscan)
# Description: as §1
# KIT(V559D,T670I) = target: T17, KIT(V559D,T670I) (Homo sapiens, UniProt P10721, T670I/V559D); conditions: compound concentration 10 uM, read-out: Percent Competition
# T17 construct: purchased Ambit Biosciences (KINOMEscan)
# Description: as §1
# AURKB = target: T18, AURKB (Homo sapiens, UniProt Q96GD4); conditions: compound concentration 10 uM, read-out: Percent Competition
# T18 construct: purchased Ambit Biosciences (KINOMEscan)
# Description: as §1
# RET(V804L) = target: T19, RET(V804L) (Homo sapiens, UniProt P07949, V804L); conditions: compound concentration 10 uM, read-out: Percent Competition
# T19 construct: purchased Ambit Biosciences (KINOMEscan)
# Description: as §1
# ALK = target: T20, ALK (Homo sapiens, UniProt Q9UM73); conditions: compound concentration 10 uM, read-out: Percent Competition
# T20 construct: purchased Ambit Biosciences (KINOMEscan)
# Description: as §1
# MLK2 = target: T21, MLK2 (Homo sapiens, UniProt Q02779); conditions: compound concentration 10 uM, read-out: Percent Competition
# T21 construct: purchased Ambit Biosciences (KINOMEscan)
# Description: as §1
# PFTK1 = target: T22, PFTK1 (Homo sapiens, UniProt O94921); conditions: compound concentration 10 uM
# T22 construct: purchased Ambit Biosciences (KINOMEscan)
# Description: as §1
# ABL1(Y253F) = target: T23, ABL1(Y253F) (Homo sapiens, UniProt P00519, Y253F); conditions: compound concentration 10 uM, read-out: Percent Competition
# T23 construct: purchased Ambit Biosciences (KINOMEscan)
# Description: as §1
# PLK3 = target: T24, PLK3 (Homo sapiens, UniProt Q9H4B4); conditions: compound concentration 10 uM, read-out: Percent Competition
# T24 construct: purchased Ambit Biosciences (KINOMEscan)
# Description: as §1
# BRSK2 = target: T25, BRSK2 (Homo sapiens, UniProt Q8IWQ3); conditions: compound concentration 10 uM, read-out: Percent Competition
# T25 construct: purchased Ambit Biosciences (KINOMEscan)
# Description: as §1
# MYLK2 = target: T26, MYLK2 (Homo sapiens, UniProt Q9H1R3); conditions: compound concentration 10 uM, read-out: Percent Competition
# T26 construct: purchased Ambit Biosciences (KINOMEscan)
# Description: as §1
# SRPK1 = target: T27, SRPK1 (Homo sapiens, UniProt Q96SB4); conditions: compound concentration 10 uM, read-out: Percent Competition
# T27 construct: purchased Ambit Biosciences (KINOMEscan)
# Description: as §1
# FYN = target: T28, FYN (Homo sapiens, UniProt P06241); conditions: compound concentration 10 uM, read-out: Percent Competition
# T28 construct: purchased Ambit Biosciences (KINOMEscan)
# Description: as §1
# EPHA2 = target: T29, EPHA2 (Homo sapiens, UniProt P29317); conditions: compound concentration 10 uM, read-out: Percent Competition
# T29 construct: purchased Ambit Biosciences (KINOMEscan)
# Description: as §1
# TIE1 = target: T30, TIE1 (Homo sapiens, UniProt P35590); conditions: compound concentration 10 uM, read-out: Percent Competition
# T30 construct: purchased Ambit Biosciences (KINOMEscan)
# Description: as §1
# ABL1(F317L) = target: T31, ABL1(F317L) (Homo sapiens, UniProt P00519, F317L); conditions: compound concentration 10 uM, read-out: Percent Competition
# T31 construct: purchased Ambit Biosciences (KINOMEscan)
# Description: as §1
# MST1R = target: T32, MST1R (Homo sapiens, UniProt Q04912); conditions: compound concentration 10 uM, read-out: Percent Competition
# T32 construct: purchased Ambit Biosciences (KINOMEscan)
# Description: as §1
# DAPK3 = target: T33, DAPK3 (Homo sapiens, UniProt O43293); conditions: compound concentration 10 uM, read-out: Percent Competition
# T33 construct: purchased Ambit Biosciences (KINOMEscan)
# Description: as §1
# CDKL2 = target: T34, CDKL2 (Homo sapiens, UniProt Q92772); conditions: compound concentration 10 uM, read-out: Percent Competition
# T34 construct: purchased Ambit Biosciences (KINOMEscan)
# Description: as §1
# AKT1 = target: T35, AKT1 (Homo sapiens, UniProt P31749); conditions: compound concentration 10 uM, read-out: Percent Competition
# T35 construct: purchased Ambit Biosciences (KINOMEscan)
# Description: as §1
# GCN2(Kin.Dom.2,S808G) = target: T36, GCN2(Kin.Dom.2,S808G) (Homo sapiens, UniProt Q9P2K8, S808G); conditions: compound concentration 10 uM, read-out: Percent Competition
# T36 construct: GCN2(Kin.Dom.2,S808G); purchased Ambit Biosciences (KINOMEscan)
# Description: as §1
# YSK1 = target: T37, YSK1 (Homo sapiens, UniProt O00506); conditions: compound concentration 10 uM, read-out: Percent Competition
# T37 construct: purchased Ambit Biosciences (KINOMEscan)
# Description: as §1
# CSNK2A2 = target: T38, CSNK2A2 (Homo sapiens, UniProt P19784); conditions: compound concentration 10 uM, read-out: Percent Competition
# T38 construct: purchased Ambit Biosciences (KINOMEscan)
# Description: as §1
# EPHB1 = target: T39, EPHB1 (Homo sapiens, UniProt P54762); conditions: compound concentration 10 uM, read-out: Percent Competition
# T39 construct: purchased Ambit Biosciences (KINOMEscan)
# Description: as §1
# EPHA7 = target: T40, EPHA7 (Homo sapiens, UniProt Q15375); conditions: compound concentration 10 uM, read-out: Percent Competition
# T40 construct: purchased Ambit Biosciences (KINOMEscan)
# Description: as §1
smiles,measurement,setting,value
Fc1ccc(-c2c(-c3ccncc3)[nH]c3nccnc23)cc1 [RO1155697-000-005],inhibition at 10 µM,DCAMKL2,< 50%
same,inhibition at 10 µM,BIKE,< 50%
same,inhibition at 10 µM,AKT2,< 50%
same,inhibition at 10 µM,PIK3CA,< 50%
same,inhibition at 10 µM,[1],< 50%
same,inhibition at 10 µM,SIK2,< 50%
same,inhibition at 10 µM,PFTAIRE2,< 50%
same,inhibition at 10 µM,TEC,< 50%
same,inhibition at 10 µM,RIOK2,< 50%
same,inhibition at 10 µM,KIT,< 50%
same,inhibition at 10 µM,ABL1(F317I),< 50%
same,inhibition at 10 µM,NEK9,< 50%
same,inhibition at 10 µM,CSF1R,< 50%
same,inhibition at 10 µM,INSR,< 50%
same,inhibition at 10 µM,PAK1,< 50%
same,Percent Competition,DLK,<50%
same,inhibition at 10 µM,"KIT(V559D,T670I)",< 50%
same,inhibition at 10 µM,AURKB,< 50%
same,inhibition at 10 µM,RET(V804L),< 50%
same,inhibition at 10 µM,ALK,< 50%
same,inhibition at 10 µM,MLK2,< 50%
same,Percent Competition,PFTK1,<50%
same,inhibition at 10 µM,ABL1(Y253F),< 50%
same,inhibition at 10 µM,PLK3,< 50%
same,inhibition at 10 µM,BRSK2,< 50%
same,inhibition at 10 µM,MYLK2,< 50%
same,inhibition at 10 µM,SRPK1,< 50%
same,inhibition at 10 µM,FYN,< 50%
same,inhibition at 10 µM,EPHA2,< 50%
same,inhibition at 10 µM,TIE1,< 50%
same,inhibition at 10 µM,ABL1(F317L),< 50%
same,inhibition at 10 µM,MST1R,< 50%
same,inhibition at 10 µM,DAPK3,< 50%
same,inhibition at 10 µM,CDKL2,< 50%
same,inhibition at 10 µM,AKT1,< 50%
same,inhibition at 10 µM,"GCN2(Kin.Dom.2,S808G)",< 50%
same,inhibition at 10 µM,YSK1,< 50%
same,inhibition at 10 µM,CSNK2A2,< 50%
same,inhibition at 10 µM,EPHB1,< 50%
same,inhibition at 10 µM,EPHA7,< 50%

# Reference: paper PMC3445516 (PLoS ONE, 2012)
